The source made the active and inactive calls. The calls are words filed in the database; no cut-off is given here.
How the values were obtained:
HepG2 [1] = experiment: Increase in glucose consumption in human HepG2 cells assessed as glucose concentration in the medium treated at 0.4 to 10 uM after incubating cells in the medium containing glucose measured after 24 hrs by glucose oxidase method; type: functional, cell-based
[2] = molecular target: T1, Tyrosine-protein phosphatase non-receptor type 1 (Homo sapiens) (UniProt P18031); experiment: Inhibition of human recombinant full length PTP1B expressed in Escherichia coli cells at 5 uM using pNPP as substrate preincubated with enzyme for 5 mins followed by incubation with substrate for 10 mins by spectrophotometry analysis relative to control
T1 sequence (whole entry): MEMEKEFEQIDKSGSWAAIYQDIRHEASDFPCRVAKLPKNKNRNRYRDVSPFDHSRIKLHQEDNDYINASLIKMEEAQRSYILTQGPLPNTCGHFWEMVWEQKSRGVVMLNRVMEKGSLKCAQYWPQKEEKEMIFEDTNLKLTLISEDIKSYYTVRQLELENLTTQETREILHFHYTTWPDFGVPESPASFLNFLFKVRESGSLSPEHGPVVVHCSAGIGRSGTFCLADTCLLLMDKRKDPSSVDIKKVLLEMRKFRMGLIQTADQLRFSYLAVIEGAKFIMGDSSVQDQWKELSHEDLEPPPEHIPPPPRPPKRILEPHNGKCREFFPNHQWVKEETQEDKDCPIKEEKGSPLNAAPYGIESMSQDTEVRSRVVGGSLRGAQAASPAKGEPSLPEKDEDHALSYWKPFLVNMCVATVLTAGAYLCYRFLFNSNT

[3] = Inhibition of baker's yeast alpha-glucosidase using p-nitrophenyl alpha-D-glucopyranoside as substrate measured after 30 mins by spectrophotometry analysis; design: species or system Saccharomyces cerevisiae
[4] = molecular target: T1, Tyrosine-protein phosphatase non-receptor type 1 (Homo sapiens); experiment: Inhibition of human recombinant full length PTP1B expressed in Escherichia coli cells at 1 uM using pNPP as substrate preincubated with enzyme for 5 mins followed by incubation with substrate for 10 mins by spectrophotometry analysis relative to control
Cricetulus griseus [5] = species: Cricetulus griseus; experiment: Inhibition of PTP1B in CHOK1 cells assessed as increase in phosphorylation of AKT at Ser473 residue at 20 uM measured after 48 hrs by Western blot analysis; type: cell-based
[6] = molecular target: T1, Tyrosine-protein phosphatase non-receptor type 1 (Homo sapiens); experiment: Inhibition of human recombinant full length PTP1B expressed in Escherichia coli cells at 10 uM using pNPP as substrate preincubated with enzyme for 5 mins followed by incubation with substrate for 10 mins by spectrophotometry analysis relative to control
CHO-K1 = experiment: Decrease in PTP1B protein expression in CHOK1 cells at 20 uM measured after 48 hrs by Western blot analysis; type: functional, cell-based; conditions: Cricetulus griseus
Cricetulus griseus [7] = species: Cricetulus griseus; experiment: Inhibition of PTP1B in CHOK1 cells assessed as increase in phosphorylation of GSK-3beta at Ser9 residue at 20 uM measured after 48 hrs by Western blot analysis; type: cell-based
INS1 [8] = experiment: Increase in insulin secretion in high glucose-treated rat INS-1 cells preincubated with compound and 40 mM glucose for 48 hrs followed by stimulation with KRB buffer containing 5 to 30 mM glucose for 60 mins and measured by ELISA; type: functional, cell-based
HepG2 [9] = experiment: Increase in glucose consumption in human HepG2 cells assessed as glucose concentration in the medium treated at 500 uM after incubating cells in the medium containing glucose measured after 24 hrs by glucose oxidase method; type: functional, cell-based
Mus musculus [10] = experiment: Antidiabetic activity in STZ-induced type-2 diabetes Kunming mouse model assessed as decrease in postprandial glucose level at 50 mg/kg, po for 2 hrs by glucometer analysis; type: functional, organism-based
Mus musculus [11] = experiment: Antihyperlipidemic activity in STZ-induced type-2 diabetes Kunming mouse model assessed as decrease in serum total cholesterol level at 50 mg/kg, po for 4 weeks relative to diabetic control; type: functional; conditions: 672 h
Mus musculus [12] = experiment: Antidiabetic activity in STZ-induced type-2 diabetes Kunming mouse model assessed as increase in glucose tolerance at 50 to 100 mg/kg, po for 13 days followed by overnight fasting and later orally treated with glucose for 60 mins and measured after 120 mins by OGTT; type: functional, organism-based
Mus musculus [13] = experiment: Antihyperlipidemic activity in STZ-induced type-2 diabetes Kunming mouse model assessed as serum triglyceride level at 100 mg/kg, po for 4 weeks (reference value: 3.08 +/- 0.84 mM); type: functional
Mus musculus [14] = experiment: Antihyperlipidemic activity in STZ-induced type-2 diabetes Kunming mouse model assessed as serum total cholesterol level at 100 mg/kg, po for 4 weeks (reference value: 9.75 +/-0.11 mM); type: functional
Mus musculus [15] = experiment: Antidiabetic activity in STZ-induced type-2 diabetes Kunming mouse model assessed as decrease in blood glucose AUC at 50 to 100 mg/kg, po administered for 4 weeks by glucometric analysis; type: functional, organism-based
Mus musculus [16] = experiment: Antihyperlipidemic activity in STZ-induced type-2 diabetes Kunming mouse model assessed as decrease in serum total cholesterol level at 100 mg/kg, po for 4 weeks relative to diabetic control; type: functional; conditions: 672 h
Mus musculus [17] = experiment: Antihyperlipidemic activity in STZ-induced type-2 diabetes Kunming mouse model assessed as serum total cholesterol level at 50 mg/kg, po for 4 weeks (reference value: 9.75 +/-0.11 mM); type: functional
Mus musculus [18] = experiment: Antidiabetic activity in STZ-induced type-2 diabetes Kunming mouse model assessed as decrease in fasting blood glucose level at 50 to 100 mg/kg, po administered for 4 weeks by glucometric analysis; type: functional, organism-based
Mus musculus [19] = experiment: Antihyperlipidemic activity in STZ-induced type-2 diabetes Kunming mouse model assessed as serum triglyceride level at 50 mg/kg, po for 4 weeks (reference value: 3.08 +/- 0.84 mM); type: functional
INS1 [20] = experiment: Increase in insulin secretion in high glucose-treated rat INS-1 cells at 0.15 uM preincubated with compound and 40 mM glucose for 48 hrs followed by stimulation with KRB buffer containing 5 to 30 mM glucose for 60 mins and measured by ELISA; type: functional, cell-based
Mus musculus [21] = experiment: Antihyperlipidemic activity in STZ-induced type-2 diabetes Kunming mouse model assessed as decrease in serum triglyceride level at 50 mg/kg, po for 4 weeks relative to diabetic control; type: functional; conditions: 672 h
Mus musculus [22] = experiment: Antidiabetic activity in STZ-induced type-2 diabetes Kunming mouse model assessed as decrease in blood glucose AUC at 100 mg/kg, po for 14 days followed by overnight fasting and later orally treated with maltose for 60 mins and measured after 120 mins by OMTT; type: functional
Mus musculus [23] = experiment: Antidiabetic activity in STZ-induced type-2 diabetes Kunming mouse model assessed as decrease in blood glucose AUC at 50 mg/kg, po for 14 days followed by overnight fasting and later orally treated with maltose for 60 mins and measured after 120 mins by OMTT; type: functional
Mus musculus [24] = experiment: Antihyperlipidemic activity in STZ-induced type-2 diabetes Kunming mouse model assessed as decrease in serum triglyceride level at 100 mg/kg, po for 4 weeks relative to diabetic control; type: functional; conditions: 672 h

Row | SMILES | Activity (HepG2 [1]) | inhibition [2] | IC50 [3] | inhibition [4] | Activity (Cricetulus griseus [5]) | inhibition [6] | inhibition (CHO-K1) | Activity (Cricetulus griseus [7]) | Activity (Mus musculus [17]) | Activity (Mus musculus [19]) | other results
1 | COc1ccc(-c2cc(=O)c3c(O)cc(O[C@@H]4O[C@H](CO)[C@@H](O)[C@H](O)[C@H]4O)cc3o2)cc1O | Active | 23.4% | > 100 µM | 27.7% | Active | 29.8% | Active | Active |  |  | Activity (INS1 [8]): Dose-dependent effect
2 | O=c1cc(-c2ccc(O)c(O)c2)oc2cc(O)cc(O)c12 [LUTEOLIN] | Active | 40.8% | 16.6 µM | 19.8% | Active | 39.9% | Active | Active |  |  | 
3 | CN(C)C(=N)NC(=N)N |  |  |  |  |  |  |  |  |  |  | Activity (HepG2 [9]): Active
4 | COc1ccc(-c2cc(=O)c3c(O)cc(O)cc3o2)cc1 [ACACETIN] | Active | 36.3% | > 100 µM | 38.2% | Active | 32% | Active | Active |  |  | 
5 | O=c1cc(-c2ccc(O)cc2)oc2cc(O)cc(O)c12 [APIGENIN] | Active | 20.2% | 9.04 µM | 29.8% | Active | 39.2% | Active | Active | 7.6 mM | 3.13 mM | inhibition (Mus musculus [10]): Active; inhibition in vivo at 50 mg/kg (Mus musculus [11]): 22.1%; Activity (Mus musculus [12]): Active; Activity (Mus musculus [13]): 3.06 mM; Activity (Mus musculus [14]): 8.22 mM; inhibition (Mus musculus [15]): Active; inhibition in vivo at 100 mg/kg (Mus musculus [16]): 15.7%; inhibition (Mus musculus [18]): Active
6 | COc1ccc(Cl)cc1C(=O)NCCc1ccc(S(=O)(=O)NC(=O)NC2CCCCC2)cc1 |  |  |  |  |  |  |  |  |  |  | Activity (INS1 [20]): Active
7 | C[C@H]1O[C@H](O[C@H]2[C@H](O)[C@@H](O)[C@@H](O[C@H]3[C@H](O)[C@@H](O)C(O)O[C@@H]3CO)O[C@@H]2CO)[C@H](O)[C@@H](O)[C@@H]1N[C@H]1C=C(CO)[C@@H](O)[C@H](O)[C@H]1O (some centres not stated) [ACARBOSE] |  |  | 236 µM |  |  |  |  |  | 9.61 mM | 3.02 mM | 
8 | COc1ccc(-c2cc(=O)c3c(O)cc(O[C@@H]4O[C@H](CO[C@@H]5O[C@@H](C)[C@H](O)[C@@H](O)[C@H]5O)[C@@H](O)[C@H](O)[C@H]4O)cc3o2)cc1O [DIOSMIN] | Active | 32.8% | > 100 µM | 36.3% | Active | 30.5% | Active | Active | 9.18 mM | 2.04 mM | inhibition in vivo at 50 mg/kg (Mus musculus [21]): 33.8%; inhibition in vivo at 100 mg/kg (Mus musculus [22]): 13.5%; inhibition (Mus musculus [10]): Active; Activity (Mus musculus [12]): Active; Activity (Mus musculus [13]): 2.24 mM; Activity (Mus musculus [14]): 8.94 mM; inhibition (Mus musculus [15]): Active; inhibition in vivo at 100 mg/kg (Mus musculus [16]): 8.3%; inhibition (Mus musculus [18]): Active; Activity (INS1 [8]): Dose-dependent effect; inhibition in vivo at 50 mg/kg (Mus musculus [23]): 11.2%; inhibition in vivo at 100 mg/kg (Mus musculus [24]): 27.3%
9 | COc1ccc(-c2cc(=O)c3c(O)cc(O)cc3o2)cc1O | Active | 27.1% |  | 22.8% | Active | 28.3% | Active | Active |  |  | 
